Read-outs that look alike come from different tables or passages of the source.
Experiments:
[1] = at 100° C.; cited from earlier work
rat = details: cited from earlier work
[2] = Doxorubicin diffusion from coagulated gel in agarose phantom; format: physicochemical; details: 2.0 mg in 0.5 mL gel
Procedure: Method 1: In a 1% (w/v) agarose gel as phantom, HSA-based #1 gel (0.5 mL) with Doxorubicin HCl (2.0 mg) was placed 1 cm away from a MW antenna at ambient temperature. The ablation was performed at 60 W for 10 minutes (MicroThermX/Varian 915 MHz). Post ablation, the cooled agarose gel was left at ambient temperature for 48 hours for diffusion of the Doxorubicin.
The solution contained 1 (w/v) % agarose phantom. The ablation conditions: 915 MHz, 60 W for 10 minutes.

[3] = In vitro elution of Doxorubicin from coagulated gel (HPLC); format: physicochemical; details: for part of drug eluted out over time: citrate buffer pH 7, 36.5° C.
Procedure: Methods 2 Absorbance values of three known concentrations of Doxorubicin samples (1.0×10^−6, 9.5×10^−6 and 1.9×10^−5 M) were obtained to established a linear relationship (FIG. 4, Left) using a HPLC system: Agilant 1100; mobile phase=a gradient of ACN and H2O with 1% ammonium acetate; wavelength=500 nm; flow rate=1 mL/min. Each data point was an average of three measurements. Under the HPLC conditions, the retention time of Doxorubicin was at 4.00 minutes. Separately, three different amounts of Doxorubicin (2.1, 1.1 and 0.6 mg) were mixed with HSA-based #1 gel (0.5 mL each) and ablated using the conditions described in Aim 1. Once complete, the coagulated gel impregnated with Doxorubicin was collected and placed in a citrate buffer (5 mL, pH 7) in a water bath at 36.5° C. At 1, 3, 24 and 72 h, a small quantity of solution (0.5 mL) was passed through a membrane filter (cutoff 7 KDa) and injected into the HPLC system to quantify the eluted Doxorubicin. Each data point was triplicated.

[4] = In vitro elution of Resiquimod from coagulated gel (HPLC); format: physicochemical
Procedure: Methods 3 Absorbance values of three known concentrations of Resiquimod samples (4.3×10−6, 4.3×10−5 and 8.6×10−5 M) were obtained to established a linear relationship (FIG. 23A) using the HPLC system as described in Methods 2 except wavelength=328 nm and the retention time=3.31 min.

[5] = Dielectric properties by open-ended coaxial measurement; format: physicochemical
Text: Materials or formulations with a high dipole moment as potential thermal accelerants can be expressed by the ε″ and σ values for thermal ablation (radiofrequency, microwave, irreversible electroporation. A person skilled in the art will recognize that in order to show the capacity of a material, or formulations of a material, quantitatively as a thermal accelerant, the concept of permittivity can be employed in lieu of, or in addition to, evaluation of dipole moment. For example, materials can be tested using an electromagnetic wave of sinusoidal frequency ω, which is directed at a subject sample by an open-ended coaxial cable of a low-power oscillator. Measurement of the magnitude and phase of the fraction of the wave which is reflected allows deduction of the complex permittivity of the tissue.
The complex permittivity is defined as ε*=ε′−jε″, where ε′ is the real permittivity and ε″ is the imaginary permittivity. […] The real permittivity is also known as the dielectric constant. The imaginary permittivity is also called the loss factor and can be written ε″=σ/(ωε0), so as to incorporate the electrical conductivity of the material, […]. The quantity a directly scales the power deposited per unit volume according to the following expression, ARD=σ|E|^2, where ARD is Absorption Rate Density (watt m^−3), […] is electrical conductivity (ohm^−1 m^−1), and JEJ is the magnitude of the electrical field (volt m^−1) produced by the microwave antenna at the point of interest in the tissue.

[6] = reference values; cited from earlier work

[Cl-].[Cs+] [CsCl, cesium chloride]
solubility in water [1]: 2.7 kg/L
LD50 (rat; iv): 910 mg/kg
LD50 (rat; oral): 2,600 mg/kg

COc1cccc2c1C(=O)c1c(O)c3c(c(O)c1C2=O)C[C@@](O)(C(=O)CO)C[C@@H]3O[C@H]1C[C@H](N)[C@H](O)[C@H](C)O1 [Doxorubicin]
diffusion to the surrounding area of the phantom ([2]; 6 h after ablation): apparent
diffusion out of coagulated gel ([2]; immediately after ablation): no diffusion out of the protein meshwork
part of drug eluted out over time ([3]; 0.6 mg in 0.5 mL gel): 87%
part of drug eluted out over time ([3]; 1.1 mg in 0.5 mL gel): 64%
part of drug eluted out over time ([3]; 2.1 mg in 0.5 mL gel): 57%
elution rate over time ([3]; 1, 3, 24, 72 h): highest at 1 h
part of drug eluted out over time ([4]; 0.063 mg): 87%
part of drug eluted out over time ([4]; 0.63 mg): 64%
part of drug eluted out over time ([4]; 1.25 mg): 57%

CO [MeOH, methanol]
Dielectric constant (ε′) ([5]; 915 MHz): 31.2
electrical conductivity (σ) ([5]; 915 MHz): 0.1 mho/m
Dielectric constant (ε′) ([5]; 2450 MHz): 22.2
electrical conductivity (σ) ([5]; 2450 MHz): 0.1

O [Water (deionized)]
Electrical Conductivity (σ) of reference media [6]: 5 × 10^−6 S/m

O [Water]
Dielectric constant (ε′) ([5]; 915 MHz): 78.3
electrical conductivity (σ) ([5]; 915 MHz): 0 mho/m
Dielectric constant (ε′) ([5]; 2450 MHz): 76.9
electrical conductivity (σ) ([5]; 2450 MHz): 0.1
